Each structure is given as a SMILES string.

Data set [1] relates to SARS-COV-2 spike-induced syncytium formation in A549-ACE2 cells. In kind it is cell-based. Conditions: A549-ACE2-GFP1-10 cells pre-incubated with drug 20 min in FBS-free medium, then mixed with 293T-spike-GFP11-mCherry cells, 24 h.
The test system of data set [2] is SARS-COV-2-induced syncytium formation in Vero E6 cells. Conditions: drug screen with more than 3,000 approved drugs (ref. 19); cited from earlier work.
The test system of data set [3] is SARS-COV-2. Conditions: Vero E6 cells; previous study (ref. 25); cited from earlier work.

For the molecule `O=C1NC(=NS(=O)(=O)c2cccc3ccccc23)S/C1=C\c1ccc(Br)cc1` [Pitstop 2], the “cell-cell fusion process (syncytium formation)” value in data set [1] was “suppressed the cell-cell fusion process”.
`COCCCC/C(=N\OCCN)c1ccc(C(F)(F)F)cc1` [fluvoxamine]: the SARS-COV-2-induced syncytium formation entry in data set [2] is recorded as “some inhibitory effects”.
With `CC(CN1c2ccccc2Sc2ccccc21)N(C)C` (stereo not shown) [promethazine], the SARS-COV-2-induced cytotoxicity entry in data set [3] is listed as “reduces SARS-COV-2-induced cytotoxicity”. For the same molecule, the SARS-COV-2-induced syncytium formation entry in data set [2] is recorded as “some inhibitory effects”.

Source of the values: patent US20240255506A1, “PAIRED-CELL PROFILING SYSTEMS FOR HIGH-THROUGHPUT SCREENING SYNCYTIUM FORMATION” (priority 2023, published 2024).
